Values of other authors, collected in patent US20160346319A1, “NO/HE GAS MIXTURE WITH BA[…]” (AIR LIQUIDE SANTE (INTERNATIONAL), priority 2014, published 2016).

System: bacteria
Settings: high dose, certain publications

## [N]=O [NO, nitric oxide]
  dose of NO showing an antibacterial effect: at least 150 ppm by volume
